# Reference: paper PMC12432127, “Assessing the potential of bacterial signal peptides for radiopharmaceutical applications” (Scientific Reports, 2025)
# Where “and” joins values, the source holds several entries; their conditions need not be identical. Equal entries are not always repeated. Residues, ends and D or L forms follow the SMILES beside them. Groups on a side chain read outwards from the residue. *: point of attachment. DOTA = O=C(O)CN1CCN(CC(=O)O)CCN(CC(=O)*)CCN(CC(=O)O)CC1; Ahx = NCCCCCC(=O)O; For = O=C*
# Tests used:
# [1] = target: T1, FPR1 (Homo sapiens, UniProt P21462); assay: High-throughput calcium imaging (FLIPR), FPR1 transfected HEK293T cells; assay type: cell-based; settings: for Calicum signal (dF/F0): FPR1-HEK; for EC50: FPR1 transfected HEK293T cells, peak calcium response, read-out: EC50 Ca2+ mobilization
# T1 construct: expressed in transfected cells; host or cells: HEK293T (transient, jetPEI)
# T1 sequence (P21462 1-350): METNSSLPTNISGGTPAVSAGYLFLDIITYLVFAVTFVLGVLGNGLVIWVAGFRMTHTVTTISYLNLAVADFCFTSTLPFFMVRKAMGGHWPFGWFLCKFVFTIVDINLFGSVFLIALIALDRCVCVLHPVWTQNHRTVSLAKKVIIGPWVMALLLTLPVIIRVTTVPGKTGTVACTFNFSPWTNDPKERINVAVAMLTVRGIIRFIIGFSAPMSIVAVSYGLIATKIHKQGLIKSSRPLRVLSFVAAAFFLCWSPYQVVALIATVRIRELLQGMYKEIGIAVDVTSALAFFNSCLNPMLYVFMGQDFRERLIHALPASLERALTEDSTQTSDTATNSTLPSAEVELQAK
# Description: Cell transfection was performed approximately 24 h after seeding the cells, when they reached about 70% confluence. Transfection was carried out using jetPEI™ (Polyplus) according to the following protocol: 0.25 µg DNA was diluted in 10 µL NaCl (150 mM). 0.5 µL of jetPEI™ solution in 10 µL NaCl was mixed with the DNA solution and incubated at RT for 15–30 min. After incubation, 20 µL of the jetPEI™/DNA mixture was added dropwise to the cells, which were then placed in the cell culture incubator at 37 °C and 5% CO2. After 18 to 24 h of transfection, the medium was replaced, and 100 µL per well was added, then placed back in the incubator.
# (§1) Automated high-throughput Ca^2+ measurements using a fluorescence imaging plate reader (FLIPR, Molecular Devices) were performed. Briefly, […] were seeded in 96-well plates (~ 50,000 cells/well) one day before the experiments and incubated at 37 °C. HEK293T cells were co-transfected with the receptor or mock and the G protein Gα16 for 48 h. On the day of the experiments, the medium was removed, and the cells were loaded with a loading solution consisting of 2 µM Calbryte dye in C1 buffer (Calbryte 520AM, AAT Bioquest 20651) 50 µL per well, for at least 2 h at RT in the dark. After 2 h of loading with the fluorescent dye, the solution was removed, the plate was washed three times using an ELX50 washer (BioTek), and the intracellular release of calcium was measured using FLIPR. A Ca^2+ response was defined as an increase in the excitation ratio (340 nm/380 nm) that was at least four times higher than the mean baseline noise after bath application.
# (§2) The results are expressed as the means ± standard deviations of the number of the indicated determinations. Calcium measurement experiments were routinely performed as triplicates and averaged over at least three independent transfections. Response amplitudes (F/F0) were calculated by dividing maximal fluorescence change after ligand application by baseline fluorescence. Maximal amplitudes were set to 100%, and curves were calculated with Graph Pad Prism Version 10.1 (GraphPad Software, Boston, MA, USA). S.D. values were calculated as averages from independently obtained EC50 values using the STDEV. Data derived from experiments were analyzed by two-way ANOVA. P < 0.05 was accepted as significant.
# [2] = system: U87-MG cells; assay: Calcium imaging (FLIPR) in U87-MG cells; assay type: cell-based, human; settings: for EC50: U87-MG cells, read-out: EC50 Ca2+ flux; for Calicum signal (dF/F0): U87 cells
# Description: as §1, §2
# [3] = Stability in human plasma (radio-HPLC); assay type: in vitro ADME; settings: human plasma, 37 °C
# Description: The radiolabelled compound (50 µL) was added to male human AB plasma (500 µL, Sigma Aldrich, USA, male AB) and incubated at 37 °C. Samples of 100 µL were taken at selected time points. The plasma proteins were precipitated with acetonitrile (-20 °C) and the precipitate was centrifuged for 1 min at 1500 rpm. The supernatant was analyzed by analytical radio-HPLC.
# [4] = Log Concentration (M) -6,5, single replicate values, listed as f-MVPIK(Ahx-DOTA-Lu)I
# [5] = Log Concentration (M) -6, single replicate values, listed as f-MVPIK(Ahx-DOTA-Lu)I
# [6] = Log Concentration (M) -7,5, single replicate values, listed as f-MVPIK(Ahx-DOTA-Lu)I
# [7] = Log Concentration (M) -7, single replicate values, listed as f-MVPIK(Ahx-DOTA-Lu)I
# [8] = Log Concentration (M) -8,5, single replicate values, listed as f-MVPIK(Ahx-DOTA-Lu)I
# [9] = Log Concentration (M) -8, single replicate values, listed as f-MVPIK(Ahx-DOTA-Lu)I
# [10] = Log Concentration (M) -9, single replicate values, listed as f-MVPIK(Ahx-DOTA-Lu)I
# [11] = Log Concentration (M) -6,5, single replicate values, listed as f-MVPIK(Ahx-DOTA-Ga)I
# [12] = Log Concentration (M) -6, single replicate values, listed as f-MVPIK(Ahx-DOTA-Ga)I
# [13] = Log Concentration (M) -7,5, single replicate values, listed as f-MVPIK(Ahx-DOTA-Ga)I
# [14] = Log Concentration (M) -7, single replicate values, listed as f-MVPIK(Ahx-DOTA-Ga)I
# [15] = Log Concentration (M) -8,5, single replicate values, listed as f-MVPIK(Ahx-DOTA-Ga)I
# [16] = Log Concentration (M) -8, single replicate values, listed as f-MVPIK(Ahx-DOTA-Ga)I
# [17] = Log Concentration (M) -9, single replicate values, listed as f-MVPIK(Ahx-DOTA-Ga)I
molecule,measurement,setting,value
f-MLFKYS,sensitivity to FPR1 compared with FPR2 (calcium),[1]; FPR1 vs FPR2,very similar sensitivity to FPR1 and FPR2
"CC[C@H](C)[C@H](NC(=O)[C@H](CCCCNC(=O)CCCCCNC(=O)CN1CCN(CC(=O)O)CCN(CC(=O)O)CCN(CC(=O)O)CC1)NC(=O)[C@@H](NC(=O)[C@@H]1CCCN1C(=O)[C@@H](NC(=O)[C@H](CCSC)NC=O)C(C)C)[C@@H](C)CC)C(=O)O [^natLu-f-MVPIK(Ahx-DOTA)I, metal not drawn] (For-MVPIK([Ahx-DOTA])I-OH)",Calicum signal (dF/F0),[1]; [4],"0,91 and 0,74 and 0,82"
same,Calicum signal (dF/F0),[1]; [5],"0,93 and 0,87 and 0,9"
same,Calicum signal (dF/F0),[1]; [6],"0,7 and 0,5 and 0,6"
same,Calicum signal (dF/F0),[1]; [7],"0,89 and 0,6 and 0,71"
same,Calicum signal (dF/F0),[1]; [8],"0,31 and 0,28 and 0,34"
same,Calicum signal (dF/F0),[1]; [9],"0,58 and 0,41 and 0,43"
same,Calicum signal (dF/F0),[1]; [10],"0,13 and 0,23 and 0,2"
same,EC50,[1],12 ± 1 nM
same,EC50,[2],10 ± 0.9 nM
same,Calicum signal (dF/F0),[2]; [4],"1,2 and 1,34 and 1 and 1,14 and 0,83"
same,Calicum signal (dF/F0),[2]; [5],"1,39 and 1,4 and 1,3 and 1,55 and 1,9"
same,Calicum signal (dF/F0),[2]; [6],"0,86 and 0,93 and 0,8 and 0,82 and 0,85"
same,Calicum signal (dF/F0),[2]; [7],"0,98 (2×) and 0,94 and 1,8 and 0,96"
same,Calicum signal (dF/F0),[2]; [8],"0,62 (3×) and 0,55 and 0,58"
same,Calicum signal (dF/F0),[2]; [9],"0,71 and 0,66 and 0,58 and 0,5 and 0,63"
same,Calicum signal (dF/F0),"[2]; Log Concentration (M) -9,5, single replicate values, listed as f-MVPIK(Ahx-DOTA-Lu)I","0,06 (2×) and 0,07 and 0,09 and 0,01"
same,Calicum signal (dF/F0),[2]; [10],"0,12 (2×) and 0,21 and 0,14 and 0,18"
"CC[C@H](C)[C@H](NC(=O)[C@H](CCCCNC(=O)CCCCCNC(=O)CN1CCN(CC(=O)O)CCN(CC(=O)O)CCN(CC(=O)O)CC1)NC(=O)[C@@H](NC(=O)[C@@H]1CCCN1C(=O)[C@@H](NC(=O)[C@H](CCSC)NC=O)C(C)C)[C@@H](C)CC)C(=O)O [^natGa-f-MVPIK(Ahx-DOTA)I, metal not drawn] (For-MVPIK([Ahx-DOTA])I-OH)",Calicum signal (dF/F0),[1]; [11],"0,85 and 0,8 and 0,68"
same,Calicum signal (dF/F0),[1]; [12],"0,85 and 0,89 and 0,8"
same,Calicum signal (dF/F0),[1]; [13],"0,66 and 0,52 and 0,6"
same,Calicum signal (dF/F0),[1]; [14],"0,74 and 0,87 and 0,65"
same,Calicum signal (dF/F0),[1]; [15],"0,12 and 0,27 and 0,23"
same,Calicum signal (dF/F0),[1]; [16],"0,28 and 0,27 and 0,3"
same,Calicum signal (dF/F0),[1]; [17],"0,14 and 0,13 and 0,12"
same,EC50,[1],20 ± 1 nM
same,EC50,[2],29 ± 2.1 nM
same,Calicum signal (dF/F0),[2]; [11],"1,2 and 1,8 and 0,91 and 1,18 and 1,37"
same,Calicum signal (dF/F0),[2]; [12],"1,22 and 1,2 (2×) and 0,96 and 1,41"
same,Calicum signal (dF/F0),[2]; [13],"0,77 and 0,6 (2×) and 0,61 and 0,7"
same,Calicum signal (dF/F0),[2]; [14],"0,98 and 0,86 and 0,8 and 1,02 and 0,95"
same,Calicum signal (dF/F0),[2]; [15],"0,4 and 0,38 and 0,33 and 0,46 and 0,35"
same,Calicum signal (dF/F0),[2]; [16],"0,45 and 0,46 (2×) and 0,65 and 0,58"
same,Calicum signal (dF/F0),"[2]; Log Concentration (M) -9,5, single replicate values, listed as f-MVPIK(Ahx-DOTA-Ga)I","0,04 and 0,02 (3×) and 0,01"
same,Calicum signal (dF/F0),[2]; [17],"0,11 (2×) and 0,17 and 0,14 and 0,13"
CC[C@H](C)[C@H](NC(=O)[C@H](CCCCNC(=O)CCCCCNC(=O)CN1CCN(CC(=O)O)CCN(CC(=O)O)CCN(CC(=O)O)CC1)NC(=O)[C@@H](NC(=O)[C@@H]1CCCN1C(=O)[C@@H](NC(=O)[C@H](CCSC)NC=O)C(C)C)[C@@H](C)CC)C(=O)O [f-MVPIK(Ahx-DOTA)I] (For-MVPIK([Ahx-DOTA])I-OH),EC50,[1],23 ± 2 nM
same,EC50,[2],5.6 ± 0.9 nM
"CC[C@H](C)[C@H](NC(=O)[C@H](CCCCNC(=O)CCCCCNC(=O)CN1CCN(CC(=O)O)CCN(CC(=O)O)CCN(CC(=O)O)CC1)NC(=O)[C@@H](NC(=O)[C@@H]1CCCN1C(=O)[C@@H](NC(=O)[C@H](CCSC)NC=O)C(C)C)[C@@H](C)CC)C(=O)O [[^68Ga]Ga-f-MVPIK(Ahx-DOTA)I, metal not drawn] (For-MVPIK([Ahx-DOTA])I-OH)",time stable in human plasma,[3],at least 4 h
